Measurements published in patent publication US5721246A, “Heterobicyclic sulfonamide and sulfonic ester derivatives” (Eisai Co., Ltd., priority 1993, dated 1998).
Values after ≈ are worked out from the molar mass of the structure shown.

Tests used:
colon 38 cells = test: In vitro antitumor test against colon 38 cells (MTT); type: cell-based; conditions: 72 h, concentration at which 50% of mouse colon 38 cells are inhibited, 3 days
Method: In vitro Antitumor Test Against Colon 38 Cells (Mouse Colon Cancer Cells)
2.5×10^3 (0.1 ml) of colon 38 cells suspended in RPMI1640 medium (a product of Sanko Junyaku) containing 10% of fetal bovine serum, penicillin (100 units/ml), streptomycin (100 μg/ml), mercaptoethanol (5×10^-5 M) and sodium pyruvate (1 mM) were inoculated in each well of a 96-well flat-bottomed microplate, and cultured in an incubator containing 5% of carbon dioxide at 37° C. for one day.
A test compound according to the present invention was dissolved in dimethyl sulfoxide in a concentration of 20 mg/ml and the resulting solution was diluted with 10% fetal bovine serum/RPMI1640 medium to a concentration of 200 μg/ml. The resulting solution was diluted with 10% fetal bovine serum/RPMI1640 medium to prepare 3-fold serial dilutions with the maximum concentration being 200 μg/ml. The obtained dilutions were each poured into the well of the above-described culture plate in an amount of 0.1 ml. The resulting plate was cultured at 37° C. in an incubator containing 5% of carbon dioxide for 3 days.
Thereafter, a solution of MTT[3-(4,5-dimethylthiazol-2-yl)-2,5-diphenyltetrazolium bromide] (having a concentration of 3.3 mg/ml) was added to each well in an amount of 0.05 ml. The resulting mixtures were further incubated for 2 hours. The supernatant was removed from each well by suction. Formed formazan was dissolved in 0.1 ml of dimethyl sulfoxide. The absorbance at 540 nm was determined with a microplate reader and the absorbance was taken as an index of the number of viable cells. The inhibitory ratio of the test compound was calculated according to the following formula to determine the IC50 of the test compound, with the IC50 referring to the concentration at which 50% of mouse colon 38 cells are inhibited: [formula] T: absorbance of well containing a test compound C: absorbance of well containing no test compound

HCT116 = test: animal or person; conditions: Mus musculus, HCT-116, ip, 504 h, once a day for 4 days, nude mice, tumor weight on 21st day, read-out: Growth inhibition ratio; for inhibition in vivo at 100 mg/kg: 100 mg/kg/day i.p.; for inhibition in vivo at 50 mg/kg: 50 mg/kg/day i.p.
Description: In vivo Antitumor Test Against HCT116 (Human Colon Cancer)
HCT116 (5 to 8×10^6) was subcutaneously transplanted to the flank of each nude mouse (BALB/c·nu/nu, aged 7 to 8 weeks, female). A test compound according to the present invention was suspended in a physiological saline containing 3.5% of dimethyl sulfoxide and 6.5% of Tween 80 and the obtained suspension was intraperitoneally administered to the mice treated above once a day in a predetermined dose for 4 days after the time at which the tumor volume had increased to about 100 mm^3, which was about 7 days after the transplantation. On the other hand, only a physiological saline containing 3.5% of dimethyl sulfoxide and 6.5% of Tween 80 was intraperitoneally administered to the mice of the control group. The control group was composed of ten mice, while each treated group was composed of five mice. On the 21st day after the initiation of administration, the tumor was extirpated from each mouse to determine its weight. The tumor growth inhibition ratio was determined by the following formula: [formula] T: average weight of tumor of the treated group C: average weight of tumor of the control group

Compound	IC50 (colon 38 cells) [µg/mL]	inhibition in vivo at 100 mg/kg (HCT116) [%]	inhibition in vivo at 50 mg/kg (HCT116) [%]
O=[N+]([O-])c1ccc(S(=O)(=O)Nc2cccc3c(Cl)c[nH]c23)cc1 [Example 2]	0.54 (≈ 1.54 µM)		
CS(=O)(=O)Nc1ccc(S(=O)(=O)Nc2cccc3c(Cl)c[nH]c23)cc1 [Example 4]	0.26 (≈ 0.65 µM)	97	
O=S(=O)(Nc1cccc2c(Cl)c[nH]c12)c1cccc(Cl)c1 [Example 7]	0.22 (≈ 0.645 µM)		
Nc1ccc(S(=O)(=O)Nc2ccc(Cl)c3c(Cl)c[nH]c23)cc1 [Example 8]	0.09 (≈ 0.253 µM)		
COc1ccc(S(=O)(=O)Nc2cccc3cn[nH]c23)cc1 [Example 13]	0.63 (≈ 2.08 µM)		
O=S(=O)(Nc1cccc2c(Cl)c[nH]c12)c1ccc(Cl)nc1 [Example 14]	0.23 (≈ 0.672 µM)		
CSCc1ccc(S(=O)(=O)Nc2cccc3c(Cl)c[nH]c23)cc1 [Example 15]	0.35 (≈ 0.954 µM)		
N#Cc1c[nH]c2c(NS(=O)(=O)c3ccc(Cl)nc3)cccc12 [Example 18]	0.11 (≈ 0.331 µM)		
NS(=O)(=O)c1ccc(S(=O)(=O)Nc2cccc3c(Cl)c[nH]c23)cc1 [Example 19]	0.1 (≈ 0.259 µM)		88
NS(=O)(=O)c1ccc(S(=O)(=O)Nc2ccc(Cl)c3c(Cl)c[nH]c23)cc1 [Example 21]	0.12 (≈ 0.286 µM)	95	
CSc1ccc(S(=O)(=O)Nc2cccc3c(Cl)c[nH]c23)cc1 [Example 22]	0.69 (≈ 1.96 µM)		
CS(=O)(=O)c1ccc(S(=O)(=O)Nc2cccc3c(Cl)c[nH]c23)cc1 [Example 23]	0.13 (≈ 0.338 µM)	87	
C[S+]([O-])c1ccc(S(=O)(=O)Nc2cccc3c(Cl)c[nH]c23)cc1 (stereo not drawn) [Example 24]	0.09 (≈ 0.244 µM)		
CC(=O)Nc1ccc(S(=O)(=O)Nc2ccc(C)c3c(Cl)c[nH]c23)cc1 [Example 26]	0.17 (≈ 0.45 µM)		
Cc1ccc(NS(=O)(=O)c2ccc(N)cc2)c2[nH]cc(Cl)c12 [Example 27]	0.1 (≈ 0.298 µM)		
N#Cc1ccc(S(=O)(=O)Nc2cccc3c(C#N)c[nH]c23)cc1 [Example 28]	0.12 (≈ 0.372 µM)	77	
N#Cc1ccc(NS(=O)(=O)c2ccc(N)cc2)c2[nH]cc(Cl)c12 [Example 32]	0.17 (≈ 0.49 µM)		
Nc1ccc(S(=O)(=O)Nc2cccc3c(Cl)c[nH]c23)cn1 [Example 33]	0.1 (≈ 0.31 µM)		74
C[S+]([O-])Cc1ccc(S(=O)(=O)Nc2cccc3c(Cl)c[nH]c23)cc1 (stereo not drawn) [Example 34]	0.14 (≈ 0.366 µM)		
NS(=O)(=O)CCc1ccc(S(=O)(=O)Nc2cccc3c(Cl)c[nH]c23)cc1 [Example 35]	0.14 (≈ 0.338 µM)		

Compound	IC50 (colon 38 cells) [µg/mL]	inhibition in vivo at 100 mg/kg (HCT116) [%]	inhibition in vivo at 50 mg/kg (HCT116) [%]
CS(=O)(=O)CCc1ccc(S(=O)(=O)Nc2cccc3c(Cl)c[nH]c23)cc1 [Example 36]	0.11 (≈ 0.266 µM)		
N#Cc1c[nH]c2c(NS(=O)(=O)c3ccc(N)nc3)cccc12 [Example 37]	0.19 (≈ 0.606 µM)	93	
CC(=O)Nc1ccc(S(=O)(=O)Nc2cccc3c(Cl)c[nH]c23)cc1Cl [Example 38]	0.57 (≈ 1.43 µM)		
N#Cc1c[nH]c2c(NS(=O)(=O)c3ccc(Cl)s3)cccc12 [Example 40]	0.27 (≈ 0.799 µM)		
COC(=O)Nc1ccc(S(=O)(=O)Nc2cccc3c(Cl)c[nH]c23)cc1 [Example 41]	0.57 (≈ 1.5 µM)		
CONS(=O)(=O)c1ccc(S(=O)(=O)Nc2cccc3c(Cl)c[nH]c23)cc1 [Example 43]	0.47 (≈ 1.13 µM)		
Cc1c(Cl)cccc1S(=O)(=O)Nc1cccc2c(C#N)c[nH]c12 [Example 45]	0.44 (≈ 1.27 µM)		
CC(C)Nc1ccc(S(=O)(=O)Nc2cccc3c(Cl)c[nH]c23)cn1 [Example 46]	0.47 (≈ 1.29 µM)		84
CN(C)CCNc1ccc(S(=O)(=O)Nc2cccc3c(Cl)c[nH]c23)cn1 [Example 47]	0.22 (≈ 0.559 µM)		
N#Cc1c[nH]c2c(NS(=O)(=O)c3ccco3)cccc12 [Example 48]	0.23 (≈ 0.801 µM)		
CN(C)S(=O)(=O)Nc1ccc(S(=O)(=O)Nc2cccc3c(Cl)c[nH]c23)cc1 [Example 49]	0.32 (≈ 0.746 µM)		
Cc1c[nH]c2c(NS(=O)(=O)c3ccc(S(C)(=O)=O)cc3)cccc12 [Example 50]	0.22 (≈ 0.604 µM)		
N#Cc1cccc(S(=O)(=O)Nc2cccc3c(C#N)c[nH]c23)c1 [Example 51]	0.09 (≈ 0.279 µM)		
CN(c1ccc(S(=O)(=O)Nc2cccc3c(Cl)c[nH]c23)cc1)S(C)(=O)=O [Example 52]	0.14 (≈ 0.338 µM)		
O=S(=O)(Nc1cccc2c(Cl)c[nH]c12)c1ccc(S(=O)(=O)N2CCCC2)cc1 [Example 54]	0.51 (≈ 1.16 µM)		
Cn1cnc(S(=O)(=O)Nc2cccc3c(C#N)c[nH]c23)c1 [Example 55]	0.59 (≈ 1.96 µM)		
O=S(=O)(Nc1cccc2c(Cl)c[nH]c12)c1ccc(NCCO)nc1 [Example 56]	0.2 (≈ 0.545 µM)		
O=S(=O)(Nc1cccc2c(Cl)c[nH]c12)c1ccc(S)nc1 [Example 57]	0.66 (≈ 1.94 µM)		
O=S(=O)(Nc1cccc2c(Cl)c[nH]c12)c1ccc(NC2CC2)nc1 [Example 59]	0.54 (≈ 1.49 µM)		
Cc1cncc(S(=O)(=O)Nc2cccc3c(C#N)c[nH]c23)c1 [Example 60]	0.08 (≈ 0.256 µM)		

Compound	IC50 (colon 38 cells) [µg/mL]	inhibition in vivo at 100 mg/kg (HCT116) [%]	inhibition in vivo at 50 mg/kg (HCT116) [%]
CNS(=O)(=O)c1ccc(S(=O)(=O)Nc2cccc3c(Cl)c[nH]c23)cc1 [Example 61]	0.24 (≈ 0.6 µM)		
CS(=O)(=O)NCCc1ccc(S(=O)(=O)Nc2cccc3c(Cl)c[nH]c23)cc1 [Example 62]	0.18 (≈ 0.421 µM)		
NS(=O)(=O)Cc1ccc(S(=O)(=O)Nc2cccc3c(Cl)c[nH]c23)cc1 [Example 63]	0.12 (≈ 0.3 µM)		
NC(=S)c1ccc(S(=O)(=O)Nc2cccc3c(Cl)c[nH]c23)cc1 [Example 64]	0.23 (≈ 0.629 µM)		
N#Cc1c[nH]c2c(NS(=O)(=O)c3ccc(Br)cn3)cccc12 [Example 65]	0.2 (≈ 0.53 µM)		
CC(=O)c1c[nH]c2c(NS(=O)(=O)c3cccc(Cl)c3)cccc12 [Example 67]	0.87 (≈ 2.49 µM)		
N#Cc1c[nH]c2c(NS(=O)(=O)c3ccc(N)cc3)cc(Br)cc12 [Example 68]	0.57 (≈ 1.46 µM)		
CCNS(=O)(=O)c1ccc(S(=O)(=O)Nc2cccc3c(Cl)c[nH]c23)cc1 [Example 69]	0.47 (≈ 1.14 µM)		
CCS(=O)(=O)Nc1ccc(S(=O)(=O)Nc2cccc3c(Cl)c[nH]c23)cc1 [Example 70]	0.42 (≈ 1.01 µM)		
N#CCCNc1ccc(S(=O)(=O)Nc2cccc3c(Cl)c[nH]c23)cn1 [Example 71]	0.23 (≈ 0.612 µM)		
CN(C)S(=O)(=O)c1ccc(S(=O)(=O)Nc2cccc3c(Cl)c[nH]c23)cc1 [Example 74]	0.36 (≈ 0.87 µM)		
O=C(c1ccc(S(=O)(=O)Nc2cccc3c(Cl)c[nH]c23)cc1)N1CCCC1 [Example 75]	0.28 (≈ 0.693 µM)		
NS(=O)(=O)Cc1ccc(S(=O)(=O)Nc2ccc(Cl)c3c(Cl)c[nH]c23)cc1 [Example 77]	0.17 (≈ 0.391 µM)		
CS(=O)(=O)CCc1ccc(S(=O)(=O)Nc2cccc3c(C#N)c[nH]c23)cc1 [Example 78]	0.26 (≈ 0.644 µM)		
CC(=O)N(C)c1ccc(S(=O)(=O)Nc2cccc3c(Cl)c[nH]c23)cc1 [Example 79]	0.09 (≈ 0.238 µM)		
O=S(=O)(Nc1cccc2c(Cl)c[nH]c12)c1ccc(O)nc1 [Example 80]	0.19 (≈ 0.587 µM)		
CN(CCc1ccc(S(=O)(=O)Nc2cccc3c(Cl)c[nH]c23)cc1)S(C)(=O)=O [Example 81]	0.25 (≈ 0.566 µM)		
CN(Cc1ccc(S(=O)(=O)Nc2cccc3c(Cl)c[nH]c23)cc1)S(C)(=O)=O [Example 83]	0.27 (≈ 0.631 µM)		
